Experimental data reported in PubChem BioAssay (NCI).
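96-well plates; 48 h exposure; 5 concentrations. Endpoints by linear interpolation between flanking doses. Not reached: highest tested concentration assigned. TGI marks complete inhibition of growth.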

Columns and labels:
Assay in all cases: growth of human tumour cells (NCI), 48 h
NCI/ADR-RES ovarian = test system: NCI/ADR-RES ovarian
M14 melanoma = test system: M14 melanoma
MDA-MB-231 breast = test system: MDA-MB-231 breast
ACHN renal = test system: ACHN renal
PC-3 prostate = test system: PC-3 prostate
SNB-19 CNS = test system: SNB-19 CNS
HCT-116 colon = test system: HCT-116 colon
DU-145 prostate = test system: DU-145 prostate
SK-OV-3 ovarian = test system: SK-OV-3 ovarian
HOP-92 NSCLC = test system: HOP-92 NSCLC
NCI-H23 lung = test system: NCI-H23 lung
786-0 renal = test system: 786-0 renal
SF-268 CNS = test system: SF-268 CNS
HL-60(TB) leukemia = test system: HL-60(TB) leukemia
MALME-3M melanoma = test system: MALME-3M melanoma
HCC-2998 colon = test system: HCC-2998 colon
UACC-257 melanoma = test system: UACC-257 melanoma
K-562 leukemia = test system: K-562 leukemia
KM12 colon = test system: KM12 colon
IGROV1 ovarian = test system: IGROV1 ovarian
CCRF-CEM leukemia = test system: CCRF-CEM leukemia
EKVX NSCLC = test system: EKVX NSCLC
MCF7 breast = test system: MCF7 breast
UO-31 renal = test system: UO-31 renal
OVCAR-5 ovarian = test system: OVCAR-5 ovarian
OVCAR-8 ovarian = test system: OVCAR-8 ovarian
NCI-H226 lung = test system: NCI-H226 lung
T-47D breast = test system: T-47D breast
RPMI-8226 leukemia = test system: RPMI-8226 leukemia
HCT-15 colon = test system: HCT-15 colon
NCI-H460 lung = test system: NCI-H460 lung
A498 renal = test system: A498 renal
BT-549 breast = test system: BT-549 breast
NCI-H522 lung = test system: NCI-H522 lung
OVCAR-4 ovarian = test system: OVCAR-4 ovarian
SNB-75 CNS = test system: SNB-75 CNS
TK-10 renal = test system: TK-10 renal
UACC-62 melanoma = test system: UACC-62 melanoma
CAKI-1 renal = test system: CAKI-1 renal
U251 CNS = test system: U251 CNS
SN12C renal = test system: SN12C renal
SK-MEL-2 melanoma = test system: SK-MEL-2 melanoma
MDA-MB-435 = test system: MDA-MB-435
MDA-N = test system: MDA-N
SK-MEL-28 melanoma = test system: SK-MEL-28 melanoma
SF-539 CNS = test system: SF-539 CNS
HS 578T breast = test system: HS 578T breast
SW-620 colon = test system: SW-620 colon
COLO 205 colon = test system: COLO 205 colon
SR leukemia = test system: SR leukemia
OVCAR-3 ovarian = test system: OVCAR-3 ovarian
MOLT-4 leukemia = test system: MOLT-4 leukemia
SK-MEL-5 melanoma = test system: SK-MEL-5 melanoma
HT29 colon = test system: HT29 colon
A549 NSCLC = test system: A549 NSCLC
RXF 393 renal = test system: RXF 393 renal
HOP-62 NSCLC = test system: HOP-62 NSCLC
SF-295 CNS = test system: SF-295 CNS
LOX IMVI melanoma = test system: LOX IMVI melanoma

NC(N)=NCC1CCCCCCN1 (configuration not stated)
TGI (NCI/ADR-RES ovarian): > 100 µM | TGI (M14 melanoma): > 100 µM | TGI (MDA-MB-231 breast): > 100 µM | TGI (ACHN renal): > 100 µM | TGI (PC-3 prostate): > 100 µM | TGI (SNB-19 CNS): > 100 µM | TGI (HCT-116 colon): > 100 µM | TGI (DU-145 prostate): > 100 µM | TGI (SK-OV-3 ovarian): > 100 µM | TGI (HOP-92 NSCLC): > 100 µM | TGI (NCI-H23 lung): > 100 µM | TGI (786-0 renal): > 100 µM | TGI (SF-268 CNS): > 100 µM | TGI (HL-60(TB) leukemia): > 100 µM | TGI (MALME-3M melanoma): > 100 µM | TGI (HCC-2998 colon): > 100 µM | TGI (UACC-257 melanoma): > 100 µM | TGI (K-562 leukemia): > 100 µM | TGI (KM12 colon): > 100 µM | TGI (IGROV1 ovarian): > 100 µM | TGI (CCRF-CEM leukemia): > 100 µM | TGI (EKVX NSCLC): > 100 µM | TGI (MCF7 breast): > 100 µM | TGI (UO-31 renal): > 100 µM | TGI (OVCAR-5 ovarian): > 100 µM | TGI (OVCAR-8 ovarian): > 100 µM | TGI (NCI-H226 lung): > 100 µM | TGI (T-47D breast): > 100 µM | TGI (RPMI-8226 leukemia): > 100 µM | TGI (HCT-15 colon): > 100 µM | TGI (NCI-H460 lung): > 100 µM | TGI (A498 renal): > 100 µM | TGI (BT-549 breast): > 100 µM | TGI (NCI-H522 lung): > 100 µM | TGI (OVCAR-4 ovarian): > 100 µM | TGI (SNB-75 CNS): > 100 µM | TGI (TK-10 renal): > 100 µM | TGI (UACC-62 melanoma): > 100 µM | TGI (CAKI-1 renal): > 100 µM | TGI (U251 CNS): > 100 µM | TGI (SN12C renal): > 100 µM | TGI (SK-MEL-2 melanoma): > 100 µM | TGI (MDA-MB-435): > 100 µM | TGI (MDA-N): > 100 µM | TGI (SK-MEL-28 melanoma): > 100 µM | TGI (SF-539 CNS): > 100 µM | TGI (HS 578T breast): > 100 µM | TGI (SW-620 colon): > 100 µM | TGI (COLO 205 colon): > 100 µM | TGI (SR leukemia): > 100 µM | TGI (OVCAR-3 ovarian): > 100 µM | TGI (MOLT-4 leukemia): > 100 µM | TGI (SK-MEL-5 melanoma): > 100 µM | TGI (HT29 colon): > 100 µM | TGI (A549 NSCLC): > 100 µM | TGI (RXF 393 renal): > 100 µM | TGI (HOP-62 NSCLC): > 100 µM | TGI (SF-295 CNS): > 100 µM

COc1cccc(C23CCCC(C2)NCC3Br)c1OC (configuration not stated)
TGI (NCI/ADR-RES ovarian): > 100 µM | TGI (M14 melanoma): > 100 µM | TGI (MDA-MB-231 breast): > 100 µM | TGI (ACHN renal): 73.8 µM | TGI (PC-3 prostate): > 100 µM | TGI (SNB-19 CNS): > 100 µM | TGI (HCT-116 colon): > 100 µM | TGI (DU-145 prostate): > 100 µM | TGI (SK-OV-3 ovarian): > 100 µM | TGI (LOX IMVI melanoma): > 100 µM | TGI (HOP-92 NSCLC): > 100 µM | TGI (NCI-H23 lung): > 100 µM | TGI (786-0 renal): > 100 µM | TGI (SF-268 CNS): > 100 µM | TGI (MALME-3M melanoma): > 100 µM | TGI (UACC-257 melanoma): > 100 µM | TGI (K-562 leukemia): > 100 µM | TGI (KM12 colon): > 100 µM | TGI (IGROV1 ovarian): > 100 µM | TGI (CCRF-CEM leukemia): 99.3 µM | TGI (EKVX NSCLC): > 100 µM | TGI (MCF7 breast): 57.3 µM | TGI (UO-31 renal): > 100 µM | TGI (OVCAR-5 ovarian): > 100 µM | TGI (OVCAR-8 ovarian): > 100 µM | TGI (NCI-H226 lung): 5.37 µM | TGI (T-47D breast): > 100 µM | TGI (RPMI-8226 leukemia): 45.7 µM | TGI (HCT-15 colon): > 100 µM | TGI (NCI-H460 lung): > 100 µM | TGI (A498 renal): 31.3 µM | TGI (BT-549 breast): 92.3 µM | TGI (NCI-H522 lung): 53.3 µM | TGI (OVCAR-4 ovarian): > 100 µM | TGI (SNB-75 CNS): > 100 µM | TGI (TK-10 renal): > 100 µM | TGI (UACC-62 melanoma): 58.1 µM | TGI (CAKI-1 renal): > 100 µM | TGI (U251 CNS): > 100 µM | TGI (SN12C renal): > 100 µM | TGI (SK-MEL-2 melanoma): > 100 µM | TGI (MDA-MB-435): > 100 µM | TGI (MDA-N): > 100 µM | TGI (SK-MEL-28 melanoma): > 100 µM | TGI (HS 578T breast): 78.5 µM | TGI (SW-620 colon): > 100 µM | TGI (COLO 205 colon): 27.1 µM | TGI (SR leukemia): 83.1 µM | TGI (OVCAR-3 ovarian): > 100 µM | TGI (MOLT-4 leukemia): > 100 µM | TGI (SK-MEL-5 melanoma): 13.1 µM | TGI (HT29 colon): > 100 µM | TGI (A549 NSCLC): > 100 µM | TGI (RXF 393 renal): > 100 µM | TGI (HOP-62 NSCLC): > 100 µM | TGI (SF-295 CNS): > 100 µM

Cc1nc(SCC(=O)Nc2ccc(Cl)cc2)c2sc(=S)n(-c3ccccc3)c2n1
TGI (NCI/ADR-RES ovarian): > 10 µM | TGI (M14 melanoma): > 10 µM | TGI (MDA-MB-231 breast): > 10 µM | TGI (ACHN renal): > 10 µM | TGI (PC-3 prostate): > 10 µM | TGI (SNB-19 CNS): > 10 µM | TGI (HCT-116 colon): > 10 µM | TGI (DU-145 prostate): > 10 µM | TGI (SK-OV-3 ovarian): > 10 µM | TGI (LOX IMVI melanoma): > 10 µM | TGI (HOP-92 NSCLC): > 10 µM | TGI (NCI-H23 lung): > 10 µM | TGI (786-0 renal): > 10 µM | TGI (SF-268 CNS): > 10 µM | TGI (HL-60(TB) leukemia): > 10 µM | TGI (MALME-3M melanoma): > 10 µM | TGI (HCC-2998 colon): > 10 µM | TGI (UACC-257 melanoma): > 10 µM | TGI (K-562 leukemia): > 10 µM | TGI (KM12 colon): > 10 µM | TGI (IGROV1 ovarian): > 10 µM | TGI (CCRF-CEM leukemia): > 10 µM | TGI (EKVX NSCLC): > 10 µM | TGI (MCF7 breast): > 10 µM | TGI (OVCAR-5 ovarian): > 10 µM | TGI (OVCAR-8 ovarian): > 10 µM | TGI (NCI-H226 lung): > 10 µM | TGI (T-47D breast): > 10 µM | TGI (RPMI-8226 leukemia): > 10 µM | TGI (HCT-15 colon): > 10 µM | TGI (NCI-H460 lung): > 10 µM | TGI (A498 renal): > 10 µM | TGI (BT-549 breast): > 10 µM | TGI (NCI-H522 lung): > 10 µM | TGI (OVCAR-4 ovarian): > 10 µM | TGI (SNB-75 CNS): > 10 µM | TGI (TK-10 renal): > 10 µM | TGI (UACC-62 melanoma): > 10 µM | TGI (CAKI-1 renal): > 10 µM | TGI (U251 CNS): > 10 µM | TGI (SN12C renal): > 10 µM | TGI (SK-MEL-2 melanoma): > 10 µM | TGI (MDA-MB-435): > 10 µM | TGI (MDA-N): > 10 µM | TGI (SK-MEL-28 melanoma): > 10 µM | TGI (SF-539 CNS): > 10 µM | TGI (HS 578T breast): > 10 µM | TGI (SW-620 colon): > 10 µM | TGI (COLO 205 colon): > 10 µM | TGI (SR leukemia): > 10 µM | TGI (OVCAR-3 ovarian): > 10 µM | TGI (MOLT-4 leukemia): > 10 µM | TGI (SK-MEL-5 melanoma): > 10 µM | TGI (HT29 colon): > 10 µM | TGI (A549 NSCLC): > 10 µM | TGI (RXF 393 renal): > 10 µM | TGI (HOP-62 NSCLC): > 10 µM | TGI (SF-295 CNS): > 10 µM
